The record followed here is paper PMC12473123, “Structure–Function Insights into Quinuclidine-3-One BisQACs: Synthesis, Modulation of Bacterial Resistance, Structure–Activity Relationship, and Biological Profiling” (Pharmaceuticals, 2025).

Holding throughout (format): cell-based
The subject of series [1] is Staphylococcus aureus ATCC 33591 (methicillin-resistant). In words: Broth microdilution MIC. Particulars: Staphylococcus aureus, ATCC33591, read-out: Minimum Inhibitory Concentrations (MIC).
Series [2] has as its system Bacillus cereus ATCC 14579. In words: Broth microdilution MIC. Particulars: ATCC14579, read-out: Minimum Inhibitory Concentrations (MIC), Bacillus cereus ATCC 14579.
The test system of series [3] is Enterococcus faecalis ATCC 29212. In words: Broth microdilution MIC. The following applies: Enterococcus faecalis, ATCC29212, read-out: Minimum Inhibitory Concentrations (MIC), Enterococcus faecalis ATCC 29212. (In general: Broth dilution looks for growth in wells or tubes with falling amounts of substance.)
Series [4] relates to Salmonella enterica (food isolate). In words: Broth microdilution MIC. Particulars: read-out: Minimum Inhibitory Concentrations (MIC).
In series [5] the test system is Pseudomonas aeruginosa ATCC 27853. Kind of series: Broth microdilution MIC. The following applies: for MIC: Pseudomonas aeruginosa, ATCC27853, read-out: Minimum Inhibitory Concentrations (MIC).
Series [6] has as its system Staphylococcus aureus ATCC 25923. In words: Time-kill kinetics assay. As to the method: To assess the temporal dynamics of bacterial viability upon exposure to the test compounds, a time-kill kinetics assay was performed using the Gram-positive reference strain Staphylococcus aureus ATCC 25923. An overnight culture of the strain was subcultured into fresh, pre-warmed Mueller–Hinton broth (MHB) and incubated under aerobic conditions at 37 °C with agitation (220 rpm) until reaching the early exponential growth phase. The bacterial suspension was then standardized to an initial concentration of approximately 5 × 10^5 CFU/mL. […] Wells containing untreated bacterial cultures served as growth controls. Immediately after mixing, a 10 µL sample from each well was withdrawn, diluted in 990 µL of MHB, and serially diluted tenfold up to 10^−6. From each dilution, 20 µL was plated on MHB agar using a sterile loop to determine the initial bacterial count (time zero). The treated plates were incubated at 37 °C, and additional samples were collected at predetermined time points (2, 4, 6, 8, 12, and 24 h) following the same dilution and plating protocol. After 24 h of incubation at 37 °C, colonies were counted, and viable bacterial counts were expressed as log10 CFU/mL for each time point. Bactericidal activity was evaluated by plotting the log10 CFU/mL over time, providing a dynamic profile of the compound’s killing kinetics.

The test system of series [7] is panel of clinically relevant bacterial strains. In words: Broth microdilution MIC, summary over the panel. The following applies: Staphylococcus aureus (including MRSA), Listeria monocytogenes, Escherichia coli.
Series [8] relates to Staphylococcus aureus ATCC 25923. Kind of series: Flow cytometry cell viability (TO/PI staining). The following applies: at the onset of treatment, concentration not given. As to the method:
To gain further insights into the effects of the test compounds on bacterial viability, Staphylococcus aureus ATCC 25923 was analyzed using flow cytometry (NovoCyte Advanteon, Agilent Technologies, Santa Clara, CA, USA). Two independent overnight cultures were diluted 1:10 in fresh Mueller–Hinton broth (MHB) and incubated at 37 °C with shaking at 220 rpm until reaching the early exponential growth phase. Cells were then harvested by centrifugation (4500× g, 10 min, room temperature). One cell pellet was resuspended in a staining buffer composed of phosphate buffer (pH 7.4) supplemented with 1 mM EDTA and 0.1% Tween 20. […] Both preparations were adjusted to a final density of 1 × 10^6 CFU/mL and served as controls for fluorescence compensation alongside an unstained bacterial population. Bacterial viability was assessed using the BD^TM Cell Viability Kit (BD Biosciences, San Jose, CA, USA), which employs thiazole orange (TO) and propidium iodide (PI) for dual fluorescence labeling. […] Flow cytometric analysis enabled the discrimination of live (TO+/PI−), damaged (TO+/PI+), and dead (TO−/PI+) bacterial populations based on their fluorescence profiles, allowing for a time-resolved evaluation of compound-induced cytotoxicity.
Background: A flow cytometer gives signals particle by particle.

With `CCCCCCCCCCCCCCCCNC1C[N+]2(CCC[N+]34CCC(CC3)C(NCCCCCCCCCCCCCCCC)C4)CCC1CC2` (racemic) [2(QC16)3, (±)-1,1′-(Propane-1,3-diyl) bis(3-(hexadecylamino)quinuclidinium) dibromide], the MIC in series [1] was 19 µM; in series [2] it was over 75 µM; in series [3], over 75 µM; in series [4], over 75 µM; in series [5], over 75 µM. The “time to rapid bactericidal activity” value in series [6] (S. aureus ATCC 25923) was at most 3 h. The “time to complete killing” value in series [6] (S. aureus ATCC 25923, 2 × MIC) came out at 2 h.
As for `CCCCCCCCCCCCCCCCNC1C[N+]2(CCCCCC[N+]34CCC(CC3)C(NCCCCCCCCCCCCCCCC)C4)CCC1CC2` (racemic) [2(QC16)6, (±)-1,1′-(Hexane-1,6-diyl) bis(3-(hexadecylamino)quinuclidinium) dibromide], the MIC in series [1] is 5 µM; in series [4], 75 µM; in series [5], over 75 µM; in series [7] it was 5 to 38 µM. For the same molecule, the “Minimum Inhibitory Concentrations (MIC)” value in series [5] (Pseudomonas aeruginosa ATCC 27853) is “largely inactive”. The “time to complete eradication / elimination of viable cells (CFU)” value in series [6] (S. aureus ATCC 25923) was at most 2 h. Besides, in series [8], the “cells with signs of membrane damage (TO+/PI+)” value is listed as “over 80%”. Besides, the “fully viable cells (TO+/PI−)” value in series [8] is reported as under 5%.
